According to US3947584A, “Novel indolyl alkyl amines, method of producing same, and their use as anorectic agents” (Siegfried Aktiengesellschaft, priority 1972, dated 1976):

Columns and labels:
[1] = Toxicity, single oral application in mouse (LD 50); details: in vivo, dissolved in equivalent quantities of HCl
Source text: (§1) The first column gives the respective two alkyl groups which are fixed in the α-position to the otherwise unsubstituted tryptamines.

Rat = assay: Anorexia, single oral application in rat (ED 50); type: in vivo; details: dissolved in equivalent quantities of HCl
Source text: as §1

Mouse / Rat = assay: Therapeutic index (LD 50 mouse, oral / ED 50 rat, oral); type: in vivo
Source text: as §1

Solubility = details: in usual alcohols and in water; hydrochloride

CCC(N)(CC)Cc1c[nH]c2ccccc12 [Ethyl, ethyl, 3-(2'-ethyl-2'-aminobutyl)-indole]
LD50 [1]: 620 mg/kg | ED50 (Rat): > 50 mg/kg | Therapeutic Index (LD 50 / ED 50) (Mouse / Rat): < 12

CCC(C)(N)Cc1c[nH]c2ccccc12 (stereo not shown) [Example 3, 3-(2'-amino-2'-methylbutyl)-indole]
solubility (Solubility): soluble very satisfactorily in usual alcohols and in water

CCC(C)(N)Cc1c[nH]c2ccccc12 (stereo not shown) [Methyl, ethyl, 3-(2'-amino-2'-methylbutyl)-indole]
LD50 [1]: 700 mg/kg | ED50 (Rat): 15 mg/kg | Therapeutic Index (LD 50 / ED 50) (Mouse / Rat): 47

CC(C)(N)Cc1c[nH]c2ccccc12 [Methyl, methyl, α,α-dimethyl tryptamine, reference compound]
LD50 [1]: 320 mg/kg | ED50 (Rat): 36 mg/kg | Therapeutic Index (LD 50 / ED 50) (Mouse / Rat): 9

CCCC(C)(N)Cc1c[nH]c2ccccc12 (stereo not shown) [Methyl, propyl, 3-(2'-methyl-2'-aminopentyl)-indole]
LD50 [1]: 530 mg/kg | ED50 (Rat): ~50 mg/kg | Therapeutic Index (LD 50 / ED 50) (Mouse / Rat): approx. 11

CCCC(N)(CCC)Cc1c[nH]c2ccccc12 [Propyl, propyl, 3-(2'-propyl-2'-aminopentyl)-indole]
LD50 [1]: 900 mg/kg | ED50 (Rat): > 50 mg/kg | Therapeutic Index (LD 50 / ED 50) (Mouse / Rat): < 18
